Laboratory results reported in ChEMBL document CHEMBL3044955, “Inhibitory activity against tobacco mosaic virus (TMV) replication of pinoresinol and syringaresinol lignans and their glycosides from the root of Rhus javanica var. roxburghiana” (J Agric Food Chem, 2007).
Values after ≈ are worked out from the molar mass of the structure shown.

Assays:
Tobacco mosaic virus [1] = test: Inhibition of Tobacco mosaic virus (TMV) replication using Nicotiana tabacum cv. K326 at 0.2 mg/mL; type: functional
Tobacco mosaic virus [2] = test: Inhibition of Tobacco mosaic virus (TMV) replication using Nicotiana tabacum cv. K326; type: functional, organism-based

| Compound | inhibition at 200 µg/mL (Tobacco mosaic virus [1]) [%] | EC50 (Tobacco mosaic virus [2]) [µg/mL] |
| --- | --- | --- |
| COc1cc(/C=C/C(=O)OC[C@H]2O[C@@H](Oc3ccc([C@@H]4OC[C@@H]5[C@H]4CO[C@H]5c4ccc(O)c(OC)c4)cc3OC)[C@H](O)[C@@H](O)[C@@H]2O)ccc1O [PINORESINOL-4'-O-[6'-O-(E)-FERULOYL]-BETA-D-GLUCOPYRANOSIDE] | 34.3 |  |
| COc1cc(/C=C/C(=O)OC[C@H]2O[C@@H](Oc3c(OC)cc([C@@H]4OC[C@@H]5[C@H]4CO[C@H]5c4cc(OC)c(O)c(OC)c4)cc3OC)[C@H](O)[C@@H](O)[C@@H]2OC(=O)/C=C/c2ccc(O)c(OC)c2)ccc1O [SYRINGARESINOL-4'-O-[4',6'-O-(E)-DIFERULOYL]-BETA-D-GLUCOPYRANOSIDE] | 56.1 | 180 (≈ 193 µM) |
| COc1cc(/C=C/C(=O)OC[C@H]2O[C@@H](Oc3ccc([C@@H]4OC[C@@H]5[C@H]4CO[C@H]5c4ccc(O)c(OC)c4)cc3OC)[C@H](O)[C@@H](OC(=O)/C=C/c3ccc(O)c(OC)c3)[C@@H]2O)ccc1O [PINORESINOL-4'-O-[3',6'-O-(E)-DIFERULOYL]-BETA-D-GLUCOPYRANOSIDE] | 47.7 | 240 (≈ 275 µM) |
| COc1cc(/C=C/C(=O)OC[C@H]2O[C@@H](Oc3ccc([C@@H]4OC[C@@H]5[C@H]4CO[C@H]5c4ccc(O)c(OC)c4)cc3OC)[C@H](O)[C@@H](O)[C@@H]2OC(=O)/C=C/c2ccc(O)c(OC)c2)ccc1O [PINORESINOL-4'-O-[4',6'-O-(E)-DIFERULOYL]-BETA-D-GLUCOPYRANOSIDE] | 50.3 | 190 (≈ 218 µM) |
